# What was measured:
# ETA (h) = target: T1, ETA (h) (Homo sapiens, UniProt P25101); assay: CEREP radioligand binding; details: % of control specific binding
# T1 construct: purchased CEREP
# Description: (§1) SB-334867 was evaluated in a selectivity screen performed at CEREP (Paris, France). The screen consisted of binding assays on a panel of 79 target receptors. The specific binding (SB) of a radioligand to each target receptor was defined as the difference between the total binding and the nonspecific binding determined in the presence of a cold competitor in excess. […] Details on the CEREP screen are available from www.cerep.fr.
# kappa (KOP) (guinea-pig) = target: T2, kappa (KOP) (guinea-pig) (Cavia porcellus, UniProt P41144); assay: CEREP radioligand binding; details: % of control specific binding
# T2 construct: purchased CEREP
# Description: as §1
# D1 (h) = target: T3, D1 (h) (Homo sapiens, UniProt P21728); assay: CEREP radioligand binding; details: % of control specific binding
# T3 construct: purchased CEREP
# Description: as §1
# 5-HT1A (h) = target: T4, 5-HT1A (h) (Homo sapiens, UniProt P08908); assay: CEREP radioligand binding; details: % of control specific binding
# T4 construct: purchased CEREP
# Description: as §1
# [1] = target: T5, mu (h) (MOP) (agonist site) (Homo sapiens, UniProt P35372); assay: CEREP radioligand binding; details: % of control specific binding
# T5 construct: purchased CEREP
# Description: as §1
# 5-HT5A (h) = target: T6, 5-HT5A (h) (Homo sapiens, UniProt P47898); assay: CEREP radioligand binding; details: % of control specific binding
# T6 construct: purchased CEREP
# Description: as §1
# D4.4 (h) = target: T7, D4.4 (h) (Homo sapiens, UniProt P21917); assay: CEREP radioligand binding; details: % of control specific binding
# T7 construct: purchased CEREP
# Description: as §1
# PCP = assay: CEREP radioligand binding; details: % of control specific binding
# Description: as §1
# CB1 (h) = target: T8, CB1 (h) (Homo sapiens, UniProt P21554); assay: CEREP radioligand binding; details: % of control specific binding
# T8 construct: purchased CEREP
# Description: as §1
# NT1 (h) (NTS1) = target: T9, NT1 (h) (NTS1) (Homo sapiens, UniProt P30989); assay: CEREP radioligand binding; details: % of control specific binding
# T9 construct: purchased CEREP
# Description: as §1
# delta 2 (h) (DOP) = target: T10, delta 2 (h) (DOP) (Homo sapiens, UniProt P41143); assay: CEREP radioligand binding; details: % of control specific binding
# T10 construct: purchased CEREP
# Description: as §1
# MT1 (h) = target: T11, MT1 (h) (Homo sapiens, UniProt P48039); assay: CEREP radioligand binding; details: % of control specific binding
# T11 construct: purchased CEREP
# Description: as §1
# A3 (h) = target: T12, A3 (h) (Homo sapiens, UniProt P0DMS8); assay: CEREP radioligand binding
# T12 construct: purchased CEREP
# Description: as §1
# VIP1 (h) (VPAC1) = target: T13, VIP1 (h) (VPAC1) (Homo sapiens, UniProt P32241); assay: CEREP radioligand binding; details: % of control specific binding
# T13 construct: purchased CEREP
# Description: as §1
# PDGF = assay: CEREP radioligand binding; details: % of control specific binding
# Description: as §1
# CGRP (h) = target: T14, CGRP (h) (Homo sapiens, UniProt O60894+Q16602); assay: CEREP radioligand binding; details: % of control specific binding
# T14 construct: purchased CEREP
# Description: as §1
# CCKA (h) (CCK1) = target: T15, CCKA (h) (CCK1) (Homo sapiens, UniProt P32238); assay: CEREP radioligand binding; details: % of control specific binding
# T15 construct: purchased CEREP
# Description: as §1
# P2Y = assay: CEREP radioligand binding
# Description: as §1
# CCR1 (h) = target: T16, CCR1 (h) (Homo sapiens, UniProt P32246); assay: CEREP radioligand binding; details: % of control specific binding
# T16 construct: purchased CEREP
# Description: as §1
# H2 (h) = target: T17, H2 (h) (Homo sapiens, UniProt P25021); assay: CEREP radioligand binding; details: % of control specific binding
# T17 construct: purchased CEREP
# Description: as §1
# TRH1 (h) = target: T18, TRH1 (h) (Homo sapiens, UniProt P34981); assay: CEREP radioligand binding; details: % of control specific binding
# T18 construct: purchased CEREP
# Description: as §1
# alpha 1 (non-selective) = assay: CEREP radioligand binding; details: % of control specific binding
# Description: as §1
# SK+Ca channel = assay: CEREP radioligand binding; details: % of control specific binding
# Description: as §1
# AT2 (h) = target: T19, AT2 (h) (Homo sapiens, UniProt P50052); assay: CEREP radioligand binding; details: % of control specific binding
# T19 construct: purchased CEREP
# Description: as §1
# K+V channel = assay: CEREP radioligand binding; details: % of control specific binding
# Description: as §1
# BZD (central) = assay: CEREP radioligand binding; details: % of control specific binding
# Description: as §1
# M1 (h) = target: T20, M1 (h) (Homo sapiens, UniProt P11229); assay: CEREP radioligand binding; details: % of control specific binding
# T20 construct: purchased CEREP
# Description: as §1
# CCKB (h) (CCK2) = target: T21, CCKB (h) (CCK2) (Homo sapiens, UniProt P32239); assay: CEREP radioligand binding; details: % of control specific binding
# T21 construct: purchased CEREP
# Description: as §1
# NK2 (h) = target: T22, NK2 (h) (Homo sapiens, UniProt P21452); assay: CEREP radioligand binding; details: % of control specific binding
# T22 construct: purchased CEREP
# Description: as §1
# [2] = target: T23, TRH1 (h) (antagonist effect) (Homo sapiens, UniProt P34981); assay: CEREP screen, antagonist effect; type: biochemical; details: % of control
# T23 construct: purchased CEREP
# Description: as §1
# HCRTR1 = target: T24, HCRTR1 (Rattus norvegicus, UniProt P56718); assay: in vivo; type: in vivo
# T24 construct: from tissue; host or cells: coronal brain sections of male Sprague-Dawley rats (locus coeruleus)
# T24 sequence (P56718 1-416): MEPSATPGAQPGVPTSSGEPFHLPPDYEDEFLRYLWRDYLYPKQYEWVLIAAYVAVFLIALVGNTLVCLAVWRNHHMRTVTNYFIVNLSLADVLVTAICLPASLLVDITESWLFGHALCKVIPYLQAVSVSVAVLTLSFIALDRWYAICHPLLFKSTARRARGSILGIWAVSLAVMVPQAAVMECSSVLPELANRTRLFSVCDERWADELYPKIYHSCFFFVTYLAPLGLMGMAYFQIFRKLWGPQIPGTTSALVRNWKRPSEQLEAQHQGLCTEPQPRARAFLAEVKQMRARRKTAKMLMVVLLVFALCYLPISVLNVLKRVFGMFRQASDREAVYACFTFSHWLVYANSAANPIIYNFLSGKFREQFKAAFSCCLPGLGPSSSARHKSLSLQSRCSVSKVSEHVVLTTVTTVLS
# T12 sequence (P0DMS8 whole entry): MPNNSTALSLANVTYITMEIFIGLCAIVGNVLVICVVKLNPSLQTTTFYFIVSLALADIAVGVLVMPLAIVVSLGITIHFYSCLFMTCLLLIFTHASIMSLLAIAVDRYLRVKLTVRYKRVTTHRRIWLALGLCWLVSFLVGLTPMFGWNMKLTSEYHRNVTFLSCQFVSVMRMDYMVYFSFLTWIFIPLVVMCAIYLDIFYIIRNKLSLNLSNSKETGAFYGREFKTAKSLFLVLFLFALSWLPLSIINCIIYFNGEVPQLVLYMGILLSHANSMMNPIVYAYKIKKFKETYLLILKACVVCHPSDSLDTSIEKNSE
# T16 sequence (P32246 whole entry): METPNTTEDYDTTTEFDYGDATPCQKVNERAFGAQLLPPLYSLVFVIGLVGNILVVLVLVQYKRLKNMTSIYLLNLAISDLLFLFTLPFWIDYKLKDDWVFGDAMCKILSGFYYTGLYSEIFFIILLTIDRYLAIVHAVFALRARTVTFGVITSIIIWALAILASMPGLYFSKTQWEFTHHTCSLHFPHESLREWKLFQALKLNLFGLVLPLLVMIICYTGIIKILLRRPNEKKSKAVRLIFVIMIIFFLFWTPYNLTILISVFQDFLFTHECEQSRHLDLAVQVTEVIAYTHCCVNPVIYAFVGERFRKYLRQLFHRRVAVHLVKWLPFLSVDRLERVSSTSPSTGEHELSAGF
# T10 sequence (P41143 whole entry): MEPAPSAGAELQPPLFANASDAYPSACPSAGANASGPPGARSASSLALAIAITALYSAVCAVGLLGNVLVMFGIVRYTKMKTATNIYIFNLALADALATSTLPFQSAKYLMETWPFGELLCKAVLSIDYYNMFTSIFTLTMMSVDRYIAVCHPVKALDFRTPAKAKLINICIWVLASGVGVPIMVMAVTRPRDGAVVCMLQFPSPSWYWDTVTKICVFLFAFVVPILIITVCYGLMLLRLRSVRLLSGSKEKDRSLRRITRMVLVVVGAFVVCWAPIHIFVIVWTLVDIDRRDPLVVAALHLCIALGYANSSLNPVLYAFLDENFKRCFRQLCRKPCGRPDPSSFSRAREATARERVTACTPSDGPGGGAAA
# T13 sequence (P32241 31-457): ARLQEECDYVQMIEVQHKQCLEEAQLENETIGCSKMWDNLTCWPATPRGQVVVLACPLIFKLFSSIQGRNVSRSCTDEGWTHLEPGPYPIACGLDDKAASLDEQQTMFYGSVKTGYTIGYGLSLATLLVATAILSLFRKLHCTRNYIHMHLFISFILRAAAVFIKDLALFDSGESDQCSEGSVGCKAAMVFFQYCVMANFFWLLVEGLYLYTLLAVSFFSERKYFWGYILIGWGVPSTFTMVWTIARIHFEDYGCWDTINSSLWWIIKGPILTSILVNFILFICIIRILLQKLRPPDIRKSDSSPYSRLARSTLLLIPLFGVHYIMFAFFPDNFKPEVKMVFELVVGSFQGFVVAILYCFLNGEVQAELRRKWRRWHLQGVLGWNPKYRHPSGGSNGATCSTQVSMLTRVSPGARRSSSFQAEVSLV
# T4 sequence (P08908 whole entry): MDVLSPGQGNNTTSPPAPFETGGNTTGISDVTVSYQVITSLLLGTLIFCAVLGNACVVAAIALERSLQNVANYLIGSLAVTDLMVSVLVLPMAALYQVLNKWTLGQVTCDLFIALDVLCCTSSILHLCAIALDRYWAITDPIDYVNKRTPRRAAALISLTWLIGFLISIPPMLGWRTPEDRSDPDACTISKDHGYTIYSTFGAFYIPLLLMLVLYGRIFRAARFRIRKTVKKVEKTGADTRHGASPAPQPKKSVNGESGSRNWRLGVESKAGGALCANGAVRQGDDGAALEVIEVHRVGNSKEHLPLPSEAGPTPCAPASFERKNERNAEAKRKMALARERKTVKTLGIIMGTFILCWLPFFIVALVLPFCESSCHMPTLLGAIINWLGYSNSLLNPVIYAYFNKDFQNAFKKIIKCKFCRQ
# T6 sequence (P47898 whole entry): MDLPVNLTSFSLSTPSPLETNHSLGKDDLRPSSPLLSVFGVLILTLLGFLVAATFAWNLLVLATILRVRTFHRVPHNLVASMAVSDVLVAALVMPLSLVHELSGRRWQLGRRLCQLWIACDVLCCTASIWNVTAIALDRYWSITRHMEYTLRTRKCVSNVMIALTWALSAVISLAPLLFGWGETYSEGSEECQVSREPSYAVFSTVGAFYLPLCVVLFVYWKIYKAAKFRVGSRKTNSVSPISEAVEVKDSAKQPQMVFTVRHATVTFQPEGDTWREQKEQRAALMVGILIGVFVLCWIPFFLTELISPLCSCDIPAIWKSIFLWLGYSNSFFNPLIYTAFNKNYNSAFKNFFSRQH
# T17 sequence (P25021 whole entry): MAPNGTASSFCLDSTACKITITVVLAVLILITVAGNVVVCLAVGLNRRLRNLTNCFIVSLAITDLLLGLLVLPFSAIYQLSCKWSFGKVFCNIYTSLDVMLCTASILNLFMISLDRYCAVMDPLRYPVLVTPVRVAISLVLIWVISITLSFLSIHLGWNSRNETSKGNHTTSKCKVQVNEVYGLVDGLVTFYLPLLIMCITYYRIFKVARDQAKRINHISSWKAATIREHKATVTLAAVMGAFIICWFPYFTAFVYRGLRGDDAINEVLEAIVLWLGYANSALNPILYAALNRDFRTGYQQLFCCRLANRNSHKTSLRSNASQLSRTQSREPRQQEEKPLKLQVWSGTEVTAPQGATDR
# T20 sequence (P11229 whole entry): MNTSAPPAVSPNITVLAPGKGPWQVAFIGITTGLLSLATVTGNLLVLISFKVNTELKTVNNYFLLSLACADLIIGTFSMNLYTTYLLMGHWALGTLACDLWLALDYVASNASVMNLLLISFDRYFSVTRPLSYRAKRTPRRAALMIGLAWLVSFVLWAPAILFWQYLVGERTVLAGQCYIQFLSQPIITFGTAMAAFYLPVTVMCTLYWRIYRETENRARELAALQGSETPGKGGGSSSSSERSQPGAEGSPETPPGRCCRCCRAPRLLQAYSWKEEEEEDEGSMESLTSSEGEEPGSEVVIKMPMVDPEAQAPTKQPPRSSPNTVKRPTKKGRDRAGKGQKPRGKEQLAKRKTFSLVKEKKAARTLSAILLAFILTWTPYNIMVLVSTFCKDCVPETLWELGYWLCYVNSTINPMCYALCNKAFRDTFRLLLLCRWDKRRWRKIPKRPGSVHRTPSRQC
# T18 sequence (P34981 whole entry): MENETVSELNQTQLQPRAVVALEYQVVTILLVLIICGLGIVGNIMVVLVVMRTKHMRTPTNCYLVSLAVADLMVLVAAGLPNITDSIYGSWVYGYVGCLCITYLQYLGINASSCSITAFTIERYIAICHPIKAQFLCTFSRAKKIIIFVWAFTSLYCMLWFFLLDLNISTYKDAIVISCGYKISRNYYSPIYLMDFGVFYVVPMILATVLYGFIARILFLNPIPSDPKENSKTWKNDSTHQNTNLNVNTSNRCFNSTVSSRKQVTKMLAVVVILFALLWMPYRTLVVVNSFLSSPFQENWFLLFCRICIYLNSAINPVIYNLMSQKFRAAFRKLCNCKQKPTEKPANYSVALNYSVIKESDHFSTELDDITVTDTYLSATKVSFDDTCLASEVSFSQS
# T23 sequence (P34981 whole entry): as above
# T14 sequence (Q16602 23-461): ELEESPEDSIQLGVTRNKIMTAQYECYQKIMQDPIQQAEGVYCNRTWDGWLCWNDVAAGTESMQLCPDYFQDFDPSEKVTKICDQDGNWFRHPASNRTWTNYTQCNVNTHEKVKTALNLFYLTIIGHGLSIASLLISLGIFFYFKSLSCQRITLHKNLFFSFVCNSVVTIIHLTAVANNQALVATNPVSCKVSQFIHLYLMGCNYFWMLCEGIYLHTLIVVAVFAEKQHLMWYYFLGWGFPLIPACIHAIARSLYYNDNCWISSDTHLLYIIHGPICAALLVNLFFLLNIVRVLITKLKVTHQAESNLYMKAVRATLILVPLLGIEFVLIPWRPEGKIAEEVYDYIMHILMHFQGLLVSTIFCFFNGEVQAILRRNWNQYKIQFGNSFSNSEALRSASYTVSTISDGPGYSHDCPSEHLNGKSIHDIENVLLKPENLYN
# T14 sequence (O60894 27-148): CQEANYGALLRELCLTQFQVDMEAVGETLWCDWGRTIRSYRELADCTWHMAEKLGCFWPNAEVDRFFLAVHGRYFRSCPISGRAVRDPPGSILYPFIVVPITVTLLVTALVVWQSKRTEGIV
# T11 sequence (P48039 whole entry): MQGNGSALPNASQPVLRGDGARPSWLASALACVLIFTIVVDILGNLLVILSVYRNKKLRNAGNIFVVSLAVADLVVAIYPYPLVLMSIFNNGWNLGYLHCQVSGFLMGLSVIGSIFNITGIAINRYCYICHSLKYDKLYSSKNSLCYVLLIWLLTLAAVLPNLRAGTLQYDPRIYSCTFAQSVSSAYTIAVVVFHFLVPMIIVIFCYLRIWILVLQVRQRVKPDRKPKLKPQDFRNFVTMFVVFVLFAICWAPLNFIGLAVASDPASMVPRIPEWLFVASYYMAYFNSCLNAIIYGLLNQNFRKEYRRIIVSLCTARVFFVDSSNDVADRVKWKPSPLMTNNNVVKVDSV
# T15 sequence (P32238 whole entry): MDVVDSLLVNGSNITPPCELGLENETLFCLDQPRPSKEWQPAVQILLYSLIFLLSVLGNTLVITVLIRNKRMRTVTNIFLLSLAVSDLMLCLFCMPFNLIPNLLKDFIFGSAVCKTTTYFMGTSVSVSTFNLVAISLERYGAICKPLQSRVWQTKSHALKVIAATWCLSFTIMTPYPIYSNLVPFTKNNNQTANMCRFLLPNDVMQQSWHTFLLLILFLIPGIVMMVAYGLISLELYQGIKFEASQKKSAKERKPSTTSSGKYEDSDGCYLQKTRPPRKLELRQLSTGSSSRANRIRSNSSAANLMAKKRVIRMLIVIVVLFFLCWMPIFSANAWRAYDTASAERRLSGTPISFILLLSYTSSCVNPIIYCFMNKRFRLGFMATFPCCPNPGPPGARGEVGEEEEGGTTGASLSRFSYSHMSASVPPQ
structure (smiles),measurement,setting,value
"Cc1nc2ccc(NC(=O)Nc3ccnc4cccnc34)cc2o1.Cl [SB-334867, 1-(2-methylbenzoxazol-6-yl)-3-[1], [5]naphthyridin-4-yl-urea hydrochloride]",% Control (10 µM) Mean SB,ETA (h),97.3%
same,% Control (10 µM) Mean SB,kappa (KOP) (guinea-pig),100.8%
same,% Control (10 µM) Mean SB,D1 (h),82.7%
same,% Control (10 µM) Mean SB,5-HT1A (h),106.6%
same,% Control (10 µM) Mean SB,[1],86.3%
same,% Control (10 µM) Mean SB,5-HT5A (h),84.1%
same,% Control (10 µM) Mean SB,D4.4 (h),95.9%
same,% Control (10 µM) Mean SB,PCP,91.8%
same,% Control (10 µM) Mean SB,CB1 (h),104.1%
same,% Control (10 µM) Mean SB,NT1 (h) (NTS1),106.9%
same,% Control (10 µM) Mean SB,delta 2 (h) (DOP),86.1%
same,% Control (10 µM) Mean SB,MT1 (h),102.4%
same,displacement of specific binding,"A3 (h); 10 µM, A3",63%
same,% Control (10 µM) Mean SB,A3 (h); % of control specific binding,37.5%
same,% Control (10 µM) Mean SB,VIP1 (h) (VPAC1),101%
same,% Control (10 µM) Mean SB,PDGF,102.6%
same,% Control (10 µM) Mean SB,CGRP (h),103.6%
same,% Control (10 µM) Mean SB,CCKA (h) (CCK1),108.8%
same,displacement of specific binding,"P2Y; 10 µM, P2Y (purinergic 2Y)",64%
same,% Control (10 µM) Mean SB,P2Y; % of control specific binding,36.4%
same,% Control (10 µM) Mean SB,CCR1 (h),94.5%
same,% Control (10 µM) Mean SB,H2 (h),86.6%
same,% Control (10 µM) Mean SB,TRH1 (h),118.5%
same,% Control (10 µM) Mean SB,alpha 1 (non-selective),87.5%
same,% Control (10 µM) Mean SB,SK+Ca channel,114.4%
same,% Control (10 µM) Mean SB,AT2 (h),114.4%
same,% Control (10 µM) Mean SB,K+V channel,108.1%
same,% Control (10 µM) Mean SB,BZD (central),89.4%
same,% Control (10 µM) Mean SB,M1 (h),103.6%
same,% Control (10 µM) Mean SB,CCKB (h) (CCK2),135.1%
same,% Control (10 µM) Mean SB,NK2 (h),96%
same,% Control (10 µM) Mean SB,[2],78.5%
"CNC(=O)[C@@H](c1ccccc1)N1CCc2cc(OC)c(OC)cc2[C@@H]1CCc1ccc(C(F)(F)F)cc1 [almorexant, (2R)-2-[(1S)-6,7-Dimethoxy-1-[2-(4-trifluoromethyl-phenyl)-ethyl]-3,4-dihydro-1H-isoquinolin-2-yl]-N-methyl-2-phenyl-acetamide]",HCRTR1 RO,HCRTR1; in vivo,50–60%
same,HCRTR1 RO (in words),HCRTR1; in vivo,returned to basal levels
same,"HCRTR1 RO, maximum",HCRTR1; in vivo,59%
same,receptor occupancy at 30 mg/kg,"HCRTR1; ip, read-out: HCRTR1 occupancy",~50%
